Results on one compound are retold here after PMC10477886, “Adamantaniline Derivatives Target ATP5B to Inhibit Translation of Hypoxia Inducible Factor‐1α” (Advanced Science, 2023).

The target in the test is T1, ATP synthase (Bos taurus, UniProt P00829).
T1 construct: purchased Abcam ab109907
The test is described as follows: MitoTox Complex V OXPHOS activity assay. It counts as biochemical. The following applies: up to 50 µM. The method, then:
The activity of complex V was determined using the MitoTox Complex V OXPHOS Activity Assay kit from Abcam (ab109907, Cambridge, MA, USA), according to the instructions. The activity of complex V was measured by monitoring the change in absorbance at 340 nm over a period of 2 h at 30 °C. Oligomycin (Selleck, […]) was used as a positive control for the assay.

Turning to `O=C(Nc1ccc(C23CC4CC(CC(C4)C2)C3)cc1)c1cccc(Cl)c1` [1‐3a, N‐(4‐((3r,5r,7r)‐Adamantan‐1‐yl)Phenyl)−3‐Chlorobenzamide], the ATP synthase activity result was “no effect on ATP synthase activity”.
